Values of other authors as cited in US12018060B2 (HANMI PHARM CO., LTD., priority 2014, dated 2024).

Conditions: after one year of administration

**Q.** Which body weight decrease does the source give for `CCCCCCCCCCC[C@@H](C[C@@H]1OC(=O)[C@H]1CCCCCC)OC(=O)[C@H](CC(C)C)NC=O` [Orlist®, Orlistat] here?
**A.** The body weight decrease was “about 4 kg”.
